Measurements from paper PMC2880318 (Immunome Research, 2010).
Where a SMILES comes first, the peptide text is derived from it.

Target: purified HLA-DRB1*0101 (Homo sapiens, UniProt P01903+P01911, A100R/D57E/F55L/F60I/F76Y/I96L/L162R/M171V/P40L/Q125E/R42F/V115G/Y59C)
Assay: biochemical
Assay type: binding

CC[C@H](C)[C@H](NC(=O)[C@H](CC(=O)O)NC(=O)[C@H](CC(N)=O)NC(=O)[C@H](Cc1ccccc1)NC(=O)[C@@H](NC(=O)[C@H](CCCCN)NC(=O)[C@H](CCCNC(=N)N)NC(=O)[C@H](C)NC(=O)[C@H](CS)NC(=O)[C@H](CC(N)=O)NC(=O)[C@H](CCCNC(=N)N)NC(=O)[C@@H](NC(=O)[C@H](Cc1ccccc1)NC(=O)[C@@H](N)CCSC)[C@@H](C)CC)C(C)C)C(=O)N[C@@H](CCCCN)C(=O)O [JUNV L1491-1505]
IC50: 2 nM

CC[C@H](C)[C@H](NC(=O)[C@H](CC(C)C)NC(=O)CNC(=O)[C@H](CCC(=O)O)NC(=O)[C@@H]1CCCN1C(=O)[C@H](CC(N)=O)NC(=O)[C@@H](NC(=O)[C@H](CCCCN)NC(=O)[C@H](CCC(N)=O)NC(=O)[C@H](Cc1ccccc1)NC(=O)[C@H](CC(N)=O)NC(=O)[C@@H](N)CCCNC(=N)N)C(C)C)C(=O)N[C@@H](CCCCN)C(=O)N[C@@H](CCC(=O)O)C(=O)N[C@@H](Cc1ccccc1)C(=O)O [LCMV L256-270] (H-RNFQKVNPEGLIKEF-OH)
IC50: 5.6 nM

CC(C)C[C@H](NC(=O)[C@H](CCC(=O)O)NC(=O)[C@H](CCCNC(=N)N)NC(=O)[C@H](CCCNC(=N)N)NC(=O)[C@H](CC(C)C)NC(=O)[C@H](C)NC(=O)[C@H](CCC(N)=O)NC(=O)[C@@H](NC(=O)[C@H](Cc1c[nH]c2ccccc12)NC(=O)[C@H](CCC(N)=O)NC(=O)[C@H](Cc1ccccc1)NC(=O)[C@H](CO)NC(=O)[C@H](CCCCN)NC(=O)[C@@H](NC(=O)[C@@H](N)CCC(=O)O)C(C)C)[C@@H](C)O)C(=O)O [LCMV NP6-20]
IC50: 49 nM

CC[C@H](C)[C@H](NC(=O)[C@H](CC(=O)O)NC(=O)[C@H](CC(C)C)NC(=O)[C@H](CC(C)C)NC(=O)[C@H](CCCNC(=N)N)NC(=O)[C@H](CC(=O)O)NC(=O)[C@H](CC(N)=O)NC(=O)[C@@H](NC(=O)[C@H](CC(C)C)NC(=O)[C@H](CCSC)NC(=O)[C@H](CC(C)C)NC(=O)[C@H](CCSC)NC(=O)[C@H](CCC(N)=O)NC(=O)CNC(=O)[C@@H](N)C(C)C)C(C)C)C(=O)O [JUNV L381-395]
IC50: 0.21 nM

CC(C)[C@H](NC(=O)[C@H](C)NC(=O)[C@H](CCCCN)NC(=O)[C@@H]1CCCN1C(=O)[C@H](CCCCN)NC(=O)[C@@H](NC(=O)[C@H](C)NC(=O)[C@H](Cc1c[nH]c2ccccc12)NC(=O)[C@H](Cc1ccccc1)NC(=O)[C@H](Cc1ccccc1)NC(=O)[C@H](CC(N)=O)NC(=O)[C@H](CCCCN)NC(=O)[C@@H](N)CC(N)=O)C(C)C)C(=O)N[C@@H](CCCNC(=N)N)C(=O)N[C@@H](CCC(N)=O)C(=O)O [JUNV L1711-1725]
IC50: 0.06 nM

CC[C@H](C)[C@H](N)C(=O)N[C@@H](CCC(N)=O)C(=O)N[C@@H](CC(C)C)C(=O)N[C@H](C(=O)N[C@@H](Cc1ccccc1)C(=O)N[C@@H](CO)C(=O)N[C@@H](CO)C(=O)N[C@@H](CCSC)C(=O)N[C@H](C(=O)N[C@@H](CC(N)=O)C(=O)N1CCC[C@H]1C(=O)N[C@@H](CC(C)C)C(=O)N[C@H](C(=O)N[C@H](C(=O)N[C@H](C(=O)O)[C@@H](C)O)[C@@H](C)CC)C(C)C)[C@@H](C)CC)C(C)C [GTOV L1826-1840] (H-IQLVFSSMINPLVIT-OH)
IC50: 0.23 nM

CC(C)C[C@H](NC(=O)CNC(=O)[C@H](CC(C)C)NC(=O)[C@H](CO)NC(=O)[C@@H](NC(=O)[C@H](CC(C)C)NC(=O)[C@H](C)NC(=O)[C@H](CCC(N)=O)NC(=O)[C@@H](NC(=O)[C@@H](NC(=O)[C@H](CO)NC(=O)[C@@H](N)CC(N)=O)C(C)C)C(C)C)[C@@H](C)O)C(=O)N[C@@H](CC(C)C)C(=O)N[C@@H](Cc1ccc(O)cc1)C(=O)N[C@H](C(=O)O)[C@@H](C)O [MACV NP191-205]
IC50: 0.78 nM

CC[C@H](C)[C@H](NC(=O)[C@H](CC(C)C)NC(=O)[C@H](Cc1c[nH]cn1)NC(=O)[C@H](CC(=O)O)NC(=O)[C@H](CO)NC(=O)[C@H](CCC(=O)O)NC(=O)[C@H](CC(C)C)NC(=O)[C@H](CC(C)C)NC(=O)[C@H](Cc1c[nH]c2ccccc12)NC(=O)[C@H](CCC(N)=O)NC(=O)[C@H](CC(N)=O)NC(=O)[C@H](CCCNC(=N)N)NC(=O)[C@@H](N)Cc1ccccc1)C(=O)N[C@@H](CO)C(=O)N[C@@H](CCC(=O)O)C(=O)O [WWAV GPC386-400] (H-FRNQWLLESDHLISE-OH)
IC50: 1.6 nM

CC[C@H](C)[C@H](NC(=O)[C@@H]1CCCN1C(=O)[C@H](CO)NC(=O)[C@@H]1CCCN1)C(=O)NCC(=O)N[C@@H](Cc1ccc(O)cc1)C(=O)N[C@@H](CC(C)C)C(=O)NCC(=O)N[C@@H](CC(C)C)C(=O)N[C@@H](CC(C)C)C(=O)N[C@@H](CO)C(=O)N[C@@H](CCC(N)=O)C(=O)N[C@@H](CCCNC(=N)N)C(=O)N[C@H](C(=O)N[C@@H](CCCNC(=N)N)C(=O)O)[C@@H](C)O [LASV GPC236-250]
IC50: 0.14 nM

CC[C@H](C)[C@H](NC(=O)[C@H](Cc1ccc(O)cc1)NC(=O)[C@@H](NC(=O)[C@H](CC(=O)O)NC(=O)[C@H](CCCNC(=N)N)NC(=O)[C@@H](NC(=O)[C@H](CCCNC(=N)N)NC(=O)[C@H](CCC(N)=O)NC(=O)[C@H](CO)NC(=O)[C@H](CC(C)C)NC(=O)[C@H](CC(C)C)NC(=O)CNC(=O)[C@H](CC(C)C)NC(=O)[C@@H](N)Cc1ccc(O)cc1)[C@@H](C)O)[C@@H](C)CC)C(=O)N[C@@H](CO)C(=O)O [LASV GPC241-255]
IC50: 0.29 nM

CC[C@H](C)[C@H](NC(=O)[C@H](CCC(=O)O)NC(=O)[C@H](CO)NC(=O)[C@H](CC(C)C)NC(=O)[C@@H](NC(=O)[C@@H](NC(=O)[C@H](CCCCN)NC(=O)[C@H](CCCNC(=N)N)NC(=O)[C@H](CC(C)C)NC(=O)[C@@H](N)Cc1c[nH]cn1)C(C)C)[C@@H](C)CC)C(=O)N[C@@H](CO)C(=O)N[C@@H](Cc1ccccc1)C(=O)N[C@@H](Cc1c[nH]cn1)C(=O)N[C@@H](CC(C)C)C(=O)N[C@H](C(=O)O)C(C)C [LCMV L946-960] (H-HLRKVILSEISFHLV-OH)
IC50: 2.1 nM

CC(C)C[C@H](NC(=O)[C@H](CO)NC(=O)[C@H](CCCNC(=N)N)NC(=O)[C@H](CCC(=O)O)NC(=O)[C@H](Cc1ccccc1)NC(=O)[C@H](CC(N)=O)NC(=O)[C@H](CC(C)C)NC(=O)[C@H](Cc1c[nH]cn1)NC(=O)[C@@H](NC(=O)[C@H](CCCCN)NC(=O)[C@@H](N)CO)[C@@H](C)O)C(=O)N[C@@H](CCCCN)C(=O)N[C@@H](C)C(=O)N[C@@H](Cc1ccccc1)C(=O)N[C@@H](Cc1ccccc1)C(=O)O [MACV GPC251-265]
IC50: 1.7 nM

CC[C@H](C)[C@H](NC(=O)[C@@H](NC(=O)[C@H](CC(C)C)NC(=O)[C@H](C)NC(=O)[C@@H]1CCCN1C(=O)[C@H](CCSC)NC(=O)[C@H](CO)NC(=O)CNC(=O)[C@H](Cc1ccccc1)NC(=O)[C@H](CCC(N)=O)NC(=O)[C@H](CC(N)=O)NC(=O)[C@H](CC(N)=O)NC(=O)[C@H](CC(C)C)NC(=O)[C@@H](N)CCCCN)[C@@H](C)O)C(=O)N[C@@H](C)C(=O)O [GTOV NP166-180]
IC50: 0.12 nM

CC(C)C[C@H](NC(=O)[C@H](CO)NC(=O)[C@@H]1CCCN1C(=O)[C@@H]1CCCN1C(=O)[C@H](C)NC(=O)[C@@H](NC(=O)[C@H](CCCNC(=N)N)NC(=O)[C@H](CCCNC(=N)N)NC(=O)[C@H](Cc1ccccc1)NC(=O)[C@H](CCC(=O)O)NC(=O)[C@H](C)NC(=O)[C@H](CO)NC(=O)[C@@H]1CCCN1)[C@@H](C)O)C(=O)N[C@@H](Cc1ccc(O)cc1)C(=O)NCC(=O)O [MACV Z21-35] (H-PSAEFRRTAPPSLYG-OH)
IC50: 2 nM

CC[C@H](C)[C@H](N)C(=O)N1CCC[C@H]1C(=O)N[C@H](C(=O)N[C@@H](CCC(N)=O)C(=O)N[C@@H](CC(C)C)C(=O)N[C@@H](CC(C)C)C(=O)N1CCC[C@H]1C(=O)N[C@@H](CC(N)=O)C(=O)N[C@H](C(=O)N[C@@H](CC(C)C)C(=O)N[C@H](C(=O)N[C@@H](Cc1ccccc1)C(=O)N[C@@H](CCC(N)=O)C(=O)N[C@@H](C)C(=O)N[C@@H](CCCCN)C(=O)O)C(C)C)[C@@H](C)O)[C@@H](C)CC [GTOV NP541-555] (H-IPIQLLPNTLVFQAK-OH)
IC50: 0.25 nM

CC(C)C[C@H](NC(=O)CNC(=O)[C@H](CS)NC(=O)[C@@H](N)CO)C(=O)N[C@@H](Cc1ccc(O)cc1)C(=O)N[C@@H](CCCCN)C(=O)N[C@@H](CCC(N)=O)C(=O)N1CCC[C@H]1C(=O)NCC(=O)N[C@H](C(=O)N1CCC[C@H]1C(=O)N[C@H](C(=O)N[C@@H](CCCNC(=N)N)C(=O)N[C@@H](Cc1c[nH]c2ccccc12)C(=O)N[C@@H](CCCCN)C(=O)O)C(C)C)C(C)C [LASV GPC476-490]
IC50: 1.5 nM

CC(C)C[C@H](NC(=O)[C@H](C)NC(=O)[C@H](CC(C)C)NC(=O)[C@H](Cc1ccccc1)NC(=O)[C@@H](NC(=O)[C@H](Cc1ccccc1)NC(=O)[C@@H](N)Cc1ccccc1)C(C)C)C(=O)N[C@@H](C)C(=O)NCC(=O)N[C@@H](CCCNC(=N)N)C(=O)N[C@@H](CO)C(=O)N[C@@H](CS)C(=O)N[C@H](C(=O)N[C@@H](CCC(=O)O)C(=O)N[C@@H](CCC(=O)O)C(=O)O)[C@@H](C)O [JUNV GPC46-60]
IC50: 0.23 nM

CC[C@H](C)[C@H](NC(=O)[C@H](CC(C)C)NC(=O)[C@H](CO)NC(=O)[C@@H](N)C(C)C)C(=O)N[C@@H](C)C(=O)N[C@@H](C)C(=O)N[C@@H](CC(C)C)C(=O)N[C@@H](CCCCN)C(=O)NCC(=O)N[C@@H](CCSC)C(=O)N[C@H](C(=O)N[C@@H](CC(N)=O)C(=O)N[C@@H](CC(C)C)C(=O)N[C@@H](Cc1c[nH]c2ccccc12)C(=O)N[C@@H](CCCCN)C(=O)O)[C@@H](C)CC [SABV GPC26-40] (H-VSLIAALKGMINLWK-OH)
IC50: 0.47 nM

CC[C@H](C)[C@H](NC(=O)[C@H](CC(=O)O)NC(=O)[C@H](CC(C)C)NC(=O)[C@@H](NC(=O)[C@@H](N)CCCNC(=N)N)C(C)C)C(=O)N[C@@H](CC(C)C)C(=O)N[C@H](C(=O)N[C@@H](C)C(=O)N[C@@H](CCCNC(=N)N)C(=O)N[C@@H](CCCNC(=N)N)C(=O)N[C@@H](CC(C)C)C(=O)N[C@@H](CC(C)C)C(=O)N[C@@H](CC(C)C)C(=O)N[C@@H](CCCCN)C(=O)N[C@@H](CCCCN)C(=O)O)C(C)C [GTOV L391-405] (H-RVLDILVARRLLLKK-OH)
IC50: 0.19 nM

CC[C@H](C)[C@H](NC(=O)[C@H](CC(=O)O)NC(=O)[C@H](CC(N)=O)NC(=O)[C@H](Cc1ccccc1)NC(=O)[C@@H](NC(=O)[C@H](CCCCN)NC(=O)[C@H](CCCNC(=N)N)NC(=O)[C@H](C)NC(=O)[C@H](CS)NC(=O)[C@H](CC(N)=O)NC(=O)[C@H](CCCNC(=N)N)NC(=O)[C@@H](NC(=O)[C@H](Cc1ccccc1)NC(=O)[C@H](CO)NC(=O)[C@@H](N)[C@@H](C)O)[C@@H](C)CC)C(C)C)C(=O)O [MACV L1491-1505]
IC50: 0.11 nM
